Reference: publication PMC10558427, “A Theobromine Derivative with Anticancer Properties Targeting VEGFR‐2: Semisynthesis, in silico and in vitro Studies” (ChemistryOpen, 2023)

Target: T1, VEGFR‐2 (Homo sapiens, UniProt P35968)
T1 construct: gene KDR
Test: in vitro VEGFR-2 inhibition assay (Human VEGFR ELISA kit)
Assay type: biochemical

T1 sequence (P35968 20-1356): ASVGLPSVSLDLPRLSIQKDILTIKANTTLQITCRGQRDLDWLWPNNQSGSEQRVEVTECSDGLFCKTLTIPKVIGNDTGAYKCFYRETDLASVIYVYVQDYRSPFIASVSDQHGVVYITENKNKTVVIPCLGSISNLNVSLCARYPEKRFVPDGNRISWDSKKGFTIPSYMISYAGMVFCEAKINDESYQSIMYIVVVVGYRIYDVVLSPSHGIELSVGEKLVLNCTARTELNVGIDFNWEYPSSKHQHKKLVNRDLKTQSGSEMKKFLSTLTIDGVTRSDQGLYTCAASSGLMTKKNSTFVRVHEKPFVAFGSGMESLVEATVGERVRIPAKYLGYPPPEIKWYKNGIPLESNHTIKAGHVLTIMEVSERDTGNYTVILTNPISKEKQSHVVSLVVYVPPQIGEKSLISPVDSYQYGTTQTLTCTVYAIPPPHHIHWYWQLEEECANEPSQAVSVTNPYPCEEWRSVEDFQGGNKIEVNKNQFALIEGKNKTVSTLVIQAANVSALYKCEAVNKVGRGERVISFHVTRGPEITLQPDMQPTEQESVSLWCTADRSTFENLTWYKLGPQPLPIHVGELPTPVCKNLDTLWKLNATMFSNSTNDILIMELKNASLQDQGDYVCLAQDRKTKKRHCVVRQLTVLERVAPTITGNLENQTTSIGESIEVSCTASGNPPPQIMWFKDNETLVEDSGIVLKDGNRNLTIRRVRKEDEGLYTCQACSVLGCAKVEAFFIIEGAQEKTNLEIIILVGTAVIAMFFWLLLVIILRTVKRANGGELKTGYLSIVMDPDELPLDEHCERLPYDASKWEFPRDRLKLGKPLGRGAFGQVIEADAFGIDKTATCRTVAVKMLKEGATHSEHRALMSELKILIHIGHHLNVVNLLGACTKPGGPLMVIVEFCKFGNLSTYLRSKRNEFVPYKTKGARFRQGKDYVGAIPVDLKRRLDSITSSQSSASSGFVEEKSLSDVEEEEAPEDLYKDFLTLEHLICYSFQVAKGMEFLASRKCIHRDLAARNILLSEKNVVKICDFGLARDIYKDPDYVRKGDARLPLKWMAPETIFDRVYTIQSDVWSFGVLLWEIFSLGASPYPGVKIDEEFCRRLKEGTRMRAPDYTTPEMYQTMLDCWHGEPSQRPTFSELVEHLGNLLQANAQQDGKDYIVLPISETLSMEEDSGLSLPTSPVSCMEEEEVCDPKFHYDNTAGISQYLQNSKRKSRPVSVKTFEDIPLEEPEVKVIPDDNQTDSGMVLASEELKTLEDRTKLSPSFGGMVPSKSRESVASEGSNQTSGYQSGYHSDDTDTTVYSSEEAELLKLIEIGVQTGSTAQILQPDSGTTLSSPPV

IC50: 69 ± 3 nM
Compound: Cn1cnc2c1c(=O)n(CC(=O)Nc1ccc(C(=O)Nc3ccc(F)cc3)cc1)c(=O)n2C [T-1-AFPB, 4‐(2‐(3,7‐Dimethyl‐2,6‐dioxo‐2,3,6,7‐tetrahydro‐1H‐purin‐1‐yl)acetamido)‐N‐(4‐fluorophenyl)benzamide]
